Here are results for nine compounds from article PMC4457452 (2013).

The test system of the first experiment is Tel22 (DNA, G4) AGGGTTAGGGTTAGGGTTAGGG
Description: SPR. The following applies: 50 mM KCl; 10 mM HEPES, 3 mM EDTA, pH 7.3; ligand range 10 nM–10 µM.
Consider `CCCCN1/C(=C/C=C/C2=[N+](CCCC)c3ccccc3C2(C)C)C(C)(C)c2ccccc21`, for which the binding result is “no”.

Another experiment has as its system cMYC19 (DNA, G4) AGGGTGGGGAGGGTGGGGA
Description: SPR. The following applies: 50 mM KCl; 10 mM HEPES, 3 mM EDTA, pH 7.3; ligand range 10 nM–10 µM.
With `CCCCN1/C(=C/C=C/C2=[N+](CCCC)c3ccccc3C2(C)C)C(C)(C)c2ccccc21`, the binding entry is on record as “no”.

The subject of the next experiment is AATT hairpin duplex (DNA, hairpin) CGAATTCGTTTTCGAATTCG
The experiment in a line: SPR. The following applies: 50 mM KCl; 10 mM HEPES, 3 mM EDTA, pH 7.3; ligand range 10 nM–10 µM.
For `CCCCN1/C(=C/C=C/C2=[N+](CCCC)c3ccccc3C2(C)C)C(C)(C)c2ccccc21`, the binding entry is reported as “no”.

The test system is the same in the next experiment. The experiment in a line: SPR steady state. The conditions noted are these: 50 mM KCl; 10 mM HEPES, 3 mM EDTA, pH 7.3.
In the case of `CC1(C)C(/C=C/C=C2/N(CCC[N+](C)(C)C)c3ccc(I)cc3C2(C)C)=[N+](CCC[N+](C)(C)C)c2ccc(I)cc21`, the K1 is given as < 10^5 M^−1.
`CC1(C)C(/C=C/C=C2/N(CCC[N+](C)(C)C)c3ccc(S(=O)(=O)O)cc3C2(C)C)=[N+](CCC[N+](C)(C)C)c2ccc(S(=O)(=O)O)cc21`: the K1 was < 10^5 M^−1.
Regarding `CC1(C)C(/C=C/C=C2/N(CCC[N+](C)(C)C)c3ccc(Cl)cc3C2(C)C)=[N+](CCC[N+](C)(C)C)c2ccc(Cl)cc21`, the K1 is recorded as < 10^5 M^−1.
For the compound `CC1(C)C(/C=C/C=C2/N(CCC[N+](C)(C)C)c3ccc(C(=O)O)cc3C2(C)C)=[N+](CCC[N+](C)(C)C)c2ccc(C(=O)O)cc21`, the K1 was < 10^5 M^−1.
In the case of `CC1(C)C(/C=C/C=C2/N(CCCc3ccccc3)c3ccccc3C2(C)C)=[N+](CCCc2ccccc2)c2ccccc21`, the K1 is reported as < 10^5 M^−1.
Take `CC1(C)C(/C=C/C=C2/N(CCC[N+](C)(C)C)c3ccc(F)cc3C2(C)C)=[N+](CCC[N+](C)(C)C)c2ccc(F)cc21`: the K1 is reported as < 10^5 M^−1.

Staying with this experiment, now noted: 50 mM KCl; 10 mM HEPES, 3 mM EDTA, pH 7.3; up to 1 µM.
`CC1(C)C(/C=C/C=C2/N(CCC[N+](C)(C)C)c3ccc(Br)cc3C2(C)C)=[N+](CCC[N+](C)(C)C)c2ccc(Br)cc21`: the K1 is recorded as < 10^5 M^−1.

The experiment is the same for the next values; noted with them: 50 mM KCl; 10 mM HEPES, 3 mM EDTA, pH 7.3; up to 10 µM.
Take `CC1(C)C(/C=C/C=C2/N(CCC[N+](C)(C)C)c3ccccc3C2(C)C)=[N+](CCC[N+](C)(C)C)c2ccccc21`: the K1 is reported as < 10^5 M^−1.

The subject of another experiment is Tel22 (DNA, G4) AGGGTTAGGGTTAGGGTTAGGG
The experiment in a line: UV thermal melting, 295 nm. The conditions noted are these: 50 mM KCl; 10 mM TRIS, 3 mM EDTA, pH 7.3; drug:DNA 6:1.
On to `CC1(C)C(/C=C/C=C2/N(CCC[N+](C)(C)C)c3ccc(I)cc3C2(C)C)=[N+](CCC[N+](C)(C)C)c2ccc(I)cc21`, for which the “∆Tm” value is 21 °C.
For the compound `CC1(C)C(/C=C/C=C2/N(CCC[N+](C)(C)C)c3ccc(S(=O)(=O)O)cc3C2(C)C)=[N+](CCC[N+](C)(C)C)c2ccc(S(=O)(=O)O)cc21`, the “∆Tm” value worked out at 1 °C.
As for `CC1(C)C(/C=C/C=C2/N(CCC[N+](C)(C)C)c3ccc(Cl)cc3C2(C)C)=[N+](CCC[N+](C)(C)C)c2ccc(Cl)cc21`, the “∆Tm” value was 19 °C.
In the case of `CC1(C)C(/C=C/C=C2/N(CCC[N+](C)(C)C)c3ccccc3C2(C)C)=[N+](CCC[N+](C)(C)C)c2ccccc21`, the “∆Tm” value worked out at 14 °C.
Take `CC1(C)C(/C=C/C=C2/N(CCCc3ccccc3)c3ccccc3C2(C)C)=[N+](CCCc2ccccc2)c2ccccc21`: the “∆Tm” value worked out at 11 °C.
Same read-out and setting: then `CCCCN1/C(=C/C=C/C2=[N+](CCCC)c3ccccc3C2(C)C)C(C)(C)c2ccccc21`, with 0 °C.

Staying with this experiment, now noted: 50 mM KCl; 10 mM TRIS, 3 mM EDTA, pH 7.3; drug:DNA 6:1, DNA 3 µM.
As to `CC1(C)C(/C=C/C=C2/N(CCC[N+](C)(C)C)c3ccc(Br)cc3C2(C)C)=[N+](CCC[N+](C)(C)C)c2ccc(Br)cc21`, the “∆Tm” value came to 24 °C.

The next experiment concerns AATT hairpin duplex (DNA, hairpin) CGAATTCGTTTTCGAATTCG
The experiment in a line: UV thermal melting, 260 nm. The following applies: 50 mM KCl; 10 mM TRIS, 3 mM EDTA, pH 7.3; drug:DNA 6:1.
`CC1(C)C(/C=C/C=C2/N(CCC[N+](C)(C)C)c3ccc(I)cc3C2(C)C)=[N+](CCC[N+](C)(C)C)c2ccc(I)cc21`: the “∆Tm” value was found to be 3 °C.
Turning to `CC1(C)C(/C=C/C=C2/N(CCC[N+](C)(C)C)c3ccc(C(=O)O)cc3C2(C)C)=[N+](CCC[N+](C)(C)C)c2ccc(C(=O)O)cc21`, the “∆Tm” value was 3 °C.
As for `CC1(C)C(/C=C/C=C2/N(CCC[N+](C)(C)C)c3ccccc3C2(C)C)=[N+](CCC[N+](C)(C)C)c2ccccc21`, the “∆Tm” value worked out at 2 °C.

The experiment is the same for the next values; noted with them: 50 mM KCl; 10 mM TRIS, 3 mM EDTA, pH 7.3; drug:DNA 6:1, DNA 3 µM.
On to `CC1(C)C(/C=C/C=C2/N(CCC[N+](C)(C)C)c3ccc(Br)cc3C2(C)C)=[N+](CCC[N+](C)(C)C)c2ccc(Br)cc21`, for which the “∆Tm” value turned out to be 0 °C.

Another experiment relates to MYC22 (DNA, G4) TGAGGGTGGGGAGGGTGGGGAA
Description: 1H NMR imino proton titration. The following applies: 20 mM potassium phosphate; pH 6.02, 35 °C, 100 µM; 3'-end tetrad first, then 5'-end tetrad.
For the compound `CC1(C)C(/C=C/C=C2/N(CCC[N+](C)(C)C)c3ccc(Br)cc3C2(C)C)=[N+](CCC[N+](C)(C)C)c2ccc(Br)cc21`, the binding entry is reported as “yes”.
Same read-out and setting: then `CC1(C)C(/C=C/C=C2/N(CCC[N+](C)(C)C)c3ccccc3C2(C)C)=[N+](CCC[N+](C)(C)C)c2ccccc21`, with “yes”.

A further experiment concerns Tel22 (DNA, G4) AGGGTTAGGGTTAGGGTTAGGG
Description: SPR steady state, two-site fit. The following applies: 50 mM KCl; 10 mM HEPES, 3 mM EDTA, pH 7.3; site 1 of 2.
For the compound `CC1(C)C(/C=C/C=C2/N(CCC[N+](C)(C)C)c3ccc(I)cc3C2(C)C)=[N+](CCC[N+](C)(C)C)c2ccc(I)cc21`, the K1 amounted to 2.1e+06 M⁻¹.
On the same count and under the same terms, the same measure for `CC1(C)C(/C=C/C=C2/N(CCC[N+](C)(C)C)c3ccc(Br)cc3C2(C)C)=[N+](CCC[N+](C)(C)C)c2ccc(Br)cc21`: 5.5e+06 M⁻¹; for `CC1(C)C(/C=C/C=C2/N(CCC[N+](C)(C)C)c3ccc(S(=O)(=O)O)cc3C2(C)C)=[N+](CCC[N+](C)(C)C)c2ccc(S(=O)(=O)O)cc21`: 820000 M⁻¹; for `CC1(C)C(/C=C/C=C2/N(CCC[N+](C)(C)C)c3ccc(Cl)cc3C2(C)C)=[N+](CCC[N+](C)(C)C)c2ccc(Cl)cc21`: 2.7e+06 M⁻¹.
Same read-out and setting: then `CC1(C)C(/C=C/C=C2/N(CCC[N+](C)(C)C)c3ccc(C(=O)O)cc3C2(C)C)=[N+](CCC[N+](C)(C)C)c2ccc(C(=O)O)cc21`, with 830000 M⁻¹.
With `CC1(C)C(/C=C/C=C2/N(CCC[N+](C)(C)C)c3ccccc3C2(C)C)=[N+](CCC[N+](C)(C)C)c2ccccc21`, the K1 amounted to 390000 M⁻¹.
Turning to `CC1(C)C(/C=C/C=C2/N(CCCc3ccccc3)c3ccccc3C2(C)C)=[N+](CCCc2ccccc2)c2ccccc21`, the K1 was 130000 M⁻¹.
For the compound `CC1(C)C(/C=C/C=C2/N(CCC[N+](C)(C)C)c3ccc(F)cc3C2(C)C)=[N+](CCC[N+](C)(C)C)c2ccc(F)cc21`, the K1 was 5.9e+06 M⁻¹.

In another experiment the test system is cMYC19 (DNA, G4) AGGGTGGGGAGGGTGGGGA
The experiment in a line: SPR steady state, two-site fit. The following applies: 50 mM KCl; 10 mM HEPES, 3 mM EDTA, pH 7.3; site 1 of 2.
`CC1(C)C(/C=C/C=C2/N(CCC[N+](C)(C)C)c3ccc(I)cc3C2(C)C)=[N+](CCC[N+](C)(C)C)c2ccc(I)cc21` came in with a K1 of 7.8e+06 M⁻¹.
`CC1(C)C(/C=C/C=C2/N(CCC[N+](C)(C)C)c3ccc(Br)cc3C2(C)C)=[N+](CCC[N+](C)(C)C)c2ccc(Br)cc21` returned a K1 of 1.2e+07 M⁻¹.
In the case of `CC1(C)C(/C=C/C=C2/N(CCC[N+](C)(C)C)c3ccc(S(=O)(=O)O)cc3C2(C)C)=[N+](CCC[N+](C)(C)C)c2ccc(S(=O)(=O)O)cc21`, the K1 stood at 570000 M⁻¹.
`CC1(C)C(/C=C/C=C2/N(CCC[N+](C)(C)C)c3ccc(Cl)cc3C2(C)C)=[N+](CCC[N+](C)(C)C)c2ccc(Cl)cc21`: the K1 turned out to be 8.4e+06 M⁻¹.
Same read-out and setting: the same measure for `CC1(C)C(/C=C/C=C2/N(CCC[N+](C)(C)C)c3ccc(C(=O)O)cc3C2(C)C)=[N+](CCC[N+](C)(C)C)c2ccc(C(=O)O)cc21`: 5e+06 M⁻¹; for `CC1(C)C(/C=C/C=C2/N(CCC[N+](C)(C)C)c3ccccc3C2(C)C)=[N+](CCC[N+](C)(C)C)c2ccccc21`: 3.8e+06 M⁻¹; for `CC1(C)C(/C=C/C=C2/N(CCCc3ccccc3)c3ccccc3C2(C)C)=[N+](CCCc2ccccc2)c2ccccc21`: 1.2e+06 M⁻¹.
`CC1(C)C(/C=C/C=C2/N(CCC[N+](C)(C)C)c3ccc(F)cc3C2(C)C)=[N+](CCC[N+](C)(C)C)c2ccc(F)cc21` came in with a K1 of 6.3e+06 M⁻¹.
